The text below walks through data of patent US11389382B2, “Biphase chemical peel” (L'OREAL, priority 2019, dated 2022).

For one data set, the system named is forearm skin. Put plainly: In vivo tape stripping, protein removed, Micro BCA assay (efficacy of desquamation). Further details: species or system human. Particulars: tape stripping of forearm after 15 min treatment; 4 tape strippings per region, average of 3 regions, single person. The protocol:
Example 5: In Vivo Tape Stripping Protein Removed Using a Micro […] Assay to Characterize the Efficacy of Desquamation
Studies were conducted with each of the exemplified inventive and comparative compositions, to evaluate effect of the compositions on live skin tape stripping samples. Inventive 1 and Inventive 2 compositions and the Comparative composition together with Jessner peel, glycolic acid alone and isopropyl myristate controls were evaluated according to the following procedure. Tape strips of skin areas tested with each composition were obtained, with 4 tape strippings per region; Average of 3 regions; Experiment done on single person rinse the forearm with distilled water and dry it for 3 minutes; Wipe with the peel test composition saturated cotton pads on the designated area and dry it for 15 min; Rinse the forearm with the water and dry the moisture by placing a tissue and patting the tissue. Air dry it for 3 min; Perform the tape stripping—(1) put the tape on, (2) place the metal plate on top of the tape, and (3) put weight (2 kg) for 5 seconds.—3 tapes (3 different regions of the skin)/peel test composition×4 tape stripping; Each tape (1.4 cm) was inserted in a 2 mL Eppendorf tube and 500 uL of PBS was added to each tube; Shaking condition ([…]) for 2 hours @ room temperature; Sonication for 20 min in ice water; Micro BCA assay.

In another data set the test system is stratum corneum samples. In words: In vitro stratum corneum comparison of ΔT using differential scanning calorimetry (lipid disorganization). Particulars: DSC 20° C. to 120° C. at 5° C./min; 0.1 g/sample on SC surface for 15 min in 75% RH. The protocol:
In Vitro Stratum Corneum Comparison of ΔT using differential scanning calorimetry (DSC) to characterize the stability of a protein or other biomolecule directly in its native form. It does this by measuring the heat change associated with the molecule's thermal denaturation when heated at a constant rate.
Studies were conducted with each of the exemplified inventive and comparative compositions, to evaluate effect of the compositions on the stratum corneum. Inventive 1 and Inventive 2 compositions and the Comparative composition together with Jessner peel, glycolic acid alone and isopropyl myristate controls were evaluated on SC samples according to the following procedure. Stratum corneum samples were equilibrated at 75% RH overnight. Inventive and Comparative Compositions and control treatments applied on SC surface (0.1 g/sample) for 15 min in 75% RH. The SC surface was wiped clean and rinsed with DI water. Allow to dry in 75% RH overnight. The DSC profile was measured from 20° C. to 120° C. at 5° C./min.
A general note: Differential scanning calorimetry records heat flow against a reference as temperature is scanned.

The conditions of data set [1]: acute oral toxicity, mutagenicity, skin irritation, skin sensitization, phototoxicity; cited from earlier work.

Molecules are shown by their SMILES.

Regarding `O=C(O)CO` [Glycolic Acid Control, glycolic acid], the “Protein Content (protein removed)” value in the data set with forearm skin is reported as 1.65 ± 0.02 μg/cm^2. For the same molecule, the “ΔT (measurement of lipid disorganization)” value in the data set on stratum corneum samples was 5.94 ± 0.41. The corresponding values for `CCCCCCCCCCCCCC(=O)OC(C)C` [Isopropyl myristate control, isopropyl myristate] are 2.4 ± 0.88 μg/cm^2 and 6.40 ± 0.1.

`CC(c1ccccc1)c1ccc(O)cc1O` (centres unmarked) [Phenylethyl resorcinol]: in data set [1], the “adverse effects in basic toxicological tests” value was “not shown adverse effects”.
